Test results: patent publication US20170198337A1, “HIGH THROUGHPUT TELOMERIC CIRCLE ASSAY” (SENS FOUNDATION, INC., priority 2014, published 2017)

Experiments:
ALT-positive cells = details: reported in the literature; cited from earlier work
ALT-positive cell lines = assay: CC EATR assay, C-circle content of cells treated with hydroxyurea, 96-well plates; format: cell-based, human; details: high-throughput format, FIG. 14
Method: FIG. 14 depicts the detection of experimentally modulated ALT levels using the CC EATR assay. Treatment of cells with hydroxyurea (HU) decreases ALT levels. […] This experiment was performed in a high-throughput format in a 96-well plates.
For the fluorescence-based detection of RCA-mediated, CC-derived products (FIGS. 3 and 4, illustrating exonuclease digestion from the 5′ or 3′ terminus, respectively), 20 μL of each sample post-RCA (a single reaction per sample) was combined with 20 μL of 0.1 mg/ml BSA, 3 mM DTT, 0.05% Tween, 10 mM Bis-Tris-Propane-HCl, 10 mM MgCl2 (final pH 7.0 at 25 degrees C.), 2.5 U of Exonuclease III or 10 U of T7 Exonuclease (NEB), and 100 nM of (CCCTAA)2 probe labeled at the 5′ end with a 6-Carboxyfluorescein (FAM) fluorophore and a ZEN internal quencher (Integrated DNA Technologies) at the first T position. […] Fluorescence signals were collected using Applied Biosystems StepOnePlus Real-Time PCR system configured to acquire data from FAM/FITC filter sets and the reaction was run at 37° C. for 1 hour with signal being collected at 0 min and then every 15 min thereafter. […]
On day 0, passage 50 U2OS cells were seeded into a 10 cm plate, a 6 well plate, a 24 well plate and a 96 well plate at quantities of 5×10^5, 3×10^5, 1×10^4 and 1×10^4 per well respectively. […]

Q: Which “ALT activity of ALT-positive cells upon treatment” value (ALT-positive cells) does the source give for `NC(=O)NO` [hydroxyurea] here?
A: Its value is “decreased ALT activity”.

Q: What about the “C-circle content of ALT-positive cell lines after HU treatment” value (ALT-positive cell lines) of the same compound?
A: Its value is “significant decreases”.
